Test results as given in the supplement of paper PMC10307832.

Tests used:
Experiment in all cases: relative viability (nuclei count vs DMSO), 5 days (fraction); higher = more cells survive
CUDC-101 + Navitoclax = compound: C#Cc1cccc(Nc2ncnc3cc(OC)c(OCCCCCCC(=O)NO)cc23)c1 [CUDC-101] + CC1(C)CCC(c2ccc(Cl)cc2)=C(CN2CCN(c3ccc(C(=O)NS(=O)(=O)c4ccc(N[C@H](CCN5CCOCC5)CSc5ccccc5)c(S(=O)(=O)C(F)(F)F)c4)cc3)CC2)C1 [Navitoclax] (partner 0.5 µM)
How it was run: (§1)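 Medians of duplicate plates are given as relative viability. That measure is the nuclei count in treated wells divided by the count in vehicle wells. Counts were taken on 4× images of lung cancer cell lines in 1536-well plates, 5 days after pin-tool dosing the day after seeding with one drug alone or a fixed anchor-drug dose plus five library-drug doses (not always all listed) in √10 steps.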

[1] = compound: C1=CC=C2C(=C1)N=C(S2)C(C#N)C3=NC(=NC=C3)NCCC4=CN=CC=C4 + NC(=O)Nc1cc(-c2cccc(F)c2)sc1C(=O)N[C@H]1CCCNC1 [AZD7762] (partner 0.2 µM)
How it was run: as §1

NVP-TAE684 + Dasatinib = compound: COc1cc(N2CCC(N3CCN(C)CC3)CC2)ccc1Nc1ncc(Cl)c(Nc2ccccc2S(=O)(=O)C(C)C)n1 [NVP-TAE684] + Cc1nc(Nc2ncc(C(=O)Nc3c(C)cccc3Cl)s2)cc(N2CCN(CCO)CC2)n1 [Dasatinib] (partner 0.075 µM)
How it was run: as §1

Vandetanib + Pemetrexed = compound: COc1cc2/c(=N/c3ccc(Br)cc3F)nc[nH]c2cc1OCC1CCN(C)CC1 [Vandetanib] + Nc1nc2[nH]cc(CCc3ccc(C(=O)N[C@@H](CCC(=O)O)C(=O)O)cc3)c2c(=O)[nH]1 [Pemetrexed] (partner 0.2 µM)
How it was run: as §1

Cell Line	relative viability (CUDC-101 + Navitoclax; first compound 0.01 µM)	relative viability (CUDC-101 + Navitoclax; first compound 0.03162 µM)	relative viability (CUDC-101 + Navitoclax; first compound 0.1 µM)	relative viability (CUDC-101 + Navitoclax; first compound 0.3162 µM)	relative viability (CUDC-101 + Navitoclax; first compound 1 µM)	relative viability ([1]; first compound 0.005 µM)	relative viability ([1]; first compound 0.01581 µM)	relative viability ([1]; first compound 0.05 µM)	relative viability ([1]; first compound 0.1581 µM)	relative viability ([1]; first compound 0.5 µM)	relative viability (NVP-TAE684 + Dasatinib; first compound 0.2 µM)	relative viability (NVP-TAE684 + Dasatinib; first compound 0.6325 µM)	relative viability (NVP-TAE684 + Dasatinib; first compound 2 µM)	relative viability (Vandetanib + Pemetrexed; first compound 0.02 µM)	relative viability (Vandetanib + Pemetrexed; first compound 0.06325 µM)	relative viability (Vandetanib + Pemetrexed; first compound 0.2 µM)	relative viability (Vandetanib + Pemetrexed; first compound 0.6325 µM)	relative viability (Vandetanib + Pemetrexed; first compound 2 µM)
EPLC-272H	1.42	1.2	1.15	0.871	0.59	0.307	0.243	0.254	0.25	0.21	0.181	0.186	0.0612	0.447	0.299	0.399	0.341	0.287
NCI-H1703	0.968	–	1.21	1.59	0.794	0.118	0.121	0.123	0.109	0.108	–	–	–	–	–	–	–	–
HCC-15	0.689	0.69	0.762	0.678	0.566	1.02	1.23	1.25	1.51	1.24	0.542	0.435	0.28	0.229	0.226	0.235	0.238	0.225
COR-L 105	0.866	0.755	0.739	0.64	0.264	–	–	–	–	–	0.256	0.202	0.204	1.17	1.13	1.09	1.07	0.843
NCI-H1650	1.22	0.967	1.28	1.1	0.85	–	–	–	–	–	0.378	0.19	0.137	0.374	0.315	0.404	0.371	0.392
NCI-H2009	1.23	1.05	1.18	1.16	1.1	–	–	–	–	–	0.207	0.157	0.172	1.02	1.14	0.99	0.986	1.05
SK-MES-1	1.27	1.37	1.28	1.16	1.12	–	–	–	–	–	0.317	0.159	0.242	1.01	0.882	0.961	0.77	0.93
Calu-6	0.93	1.1	0.848	0.82	0.624	–	–	–	–	–	–	–	–	–	–	–	–	–
NCI-H2228	0.941	0.646	0.607	1.11	0.846	–	–	–	–	–	0.206	0.0665	0.0894	0.284	0.337	0.337	0.343	0.292
NCI-H2342	–	–	–	–	–	0.546	0.484	0.49	0.583	0.467	0.297	0.277	0.292	0.728	0.832	0.77	0.801	0.668
LCLC-103H	–	–	–	–	–	0.849	0.784	0.804	0.929	0.779	0.568	0.464	0.168	0.497	0.493	0.478	0.48	0.5
NCI-H1563	–	–	–	–	–	–	–	–	–	–	0.443	0.423	0.382	0.75	0.732	0.755	0.678	0.755
COR-L23	1.08	1.07	0.907	1.09	0.444	–	–	–	–	–	0.366	0.301	0.117	0.179	0.197	0.223	0.21	0.187
EBC-1	0.41	0.377	0.365	0.184	0.144	–	–	–	–	–	–	–	–	–	–	–	–	–
NCI-H358	–	–	–	–	–	0.579	0.492	–	0.592	0.496	0.162	0.136	0.112	0.173	0.17	0.17	0.165	0.162
NCI-H2023	1.02	0.983	0.993	1	0.964	–	–	–	–	–	0.393	0.254	0.114	0.182	0.197	–	0.202	0.252
SW 1573	1.2	0.897	0.951	1.23	0.901	–	–	–	–	–	0.236	0.227	0.0788	0.899	0.841	–	0.909	0.887
SW 900	–	–	–	–	–	0.693	0.634	0.548	0.622	0.533	0.739	0.414	0.397	0.472	0.464	–	0.483	0.464
NCI-H661	–	–	–	–	–	–	–	–	–	–	1.09	0.677	0.622	0.882	0.938	0.98	0.907	0.907
A549	1.34	1.12	1.19	1.2	1.15	–	–	–	–	–	–	–	–	–	–	–	–	–
NCI-H1648	–	–	–	–	–	–	0.689	–	0.569	0.604	–	–	–	0.568	0.691	0.652	0.995	0.714
ABC-1	–	–	–	–	–	0.913	0.809	0.789	0.921	0.848	0.584	0.423	0.237	–	–	–	–	–
HCC-44	0.836	0.933	0.877	1.06	0.827	1.12	0.984	1.01	0.997	0.998	–	–	–	0.606	0.699	0.684	0.657	0.635
SK-LU-1	1.03	0.774	0.852	0.662	0.489	–	–	–	–	–	0.188	0.138	0.0928	0.971	0.787	1.01	1.07	1.04
NCI-H650	–	–	–	–	–	1.12	1.07	0.891	1.23	1.09	0.513	0.376	0.262	0.844	0.801	0.869	0.964	0.873
NCI-H520	1.04	–	1.03	0.987	0.316	–	–	–	–	–	0.17	0.196	0.139	0.705	0.646	0.607	0.783	0.679
